Measured values: patent publication EP4548976A1, “ANTIVIRAL COMPOUNDS AND COMPOSITIONS THEREFROM” (Consejo Superior De Investigaciones Científicas, priority 2023, dated 2025)

Columns and labels:
[1] = test system: SARS-CoV-2 stock strain NL/2020; experiment: Antiviral activity in A549-ACE2 cells using viral antigen quantitation (SARS-CoV-2 N protein immunofluorescence); assay type: cell-based; settings: Severe acute respiratory syndrome coronavirus 2, MOI 0.005, 48 h; for EC50: concentration reducing SARS-CoV-2 infection efficiency by 50% vs vehicle; for EC90: concentration reducing SARS-CoV-2 infection efficiency by 90% vs vehicle
[2] = in vitro; settings: human

Compound | EC50 [1] [µM] | EC90 [1] [µM] | CC50 [2] [µM]
C#Cc1ccc(-c2cccc3[nH]cc(C[C@H](NC(=O)OC(C)(C)C)C(C#N)Nc4ccc(-c5ccc(N6CCOCC6)cc5)cc4C(=O)OC)c23)cc1 (mixture of isomers) [Example 6, Methyl 4-(((1RS,2S)-2-((tert-butoxycarbonyl)amino)-1-cyano-3-(4-(4-ethynylphenyl)-1H-indol-3-yl)propyl)amino)-4'-morpholino-[1,1'-biphenyl]-3-carboxylate] | 8 | 20 | > 50
COC(=O)c1cc(-c2ccc(N3CCOCC3)cc2)ccc1NC(C#N)[C@H](Cc1c[nH]c2cccc(Br)c12)NC(=O)OC(C)(C)C (mixture of isomers) [Example 4, Methyl 4-(((1RS,2S)-3-(4-bromo-1H-indol-3-yl)-2-((tert-butoxycarbonyl)amino)-1-cyanopropyl)amino)-4'-morpholino-[1,1'-biphenyl]-3-carboxylate] | 2 | 7.5 | > 50
COC(=O)c1cc(C2=CCN(C(=O)OC(C)(C)C)CC2)ccc1NC(C#N)[C@H](Cc1c[nH]c2ccccc12)NC(=O)OC(C)(C)C (mixture of isomers) [Example 14, tert-Butyl 4-(4-(((1RS,2S)-2-((tert-butoxycarbonyl)amino)-1-cyano-3-(1H-indol-3-yl)propyl)amino)-3-(methoxycarbonyl)phenyl)-3,6-dihydropyridine-1(2H)-carboxylate] | 7 | 16 | > 50
COC(=O)c1cc(-c2ccc3cc[nH]c3c2)ccc1NC(C#N)[C@H](Cc1c[nH]c2ccccc12)NC(=O)OC(C)(C)C (mixture of isomers) [Example 11, Methyl 2-(((1RS,2S)-2-((tert-butoxycarbonyl)amino)-1-cyano-3-(1H-indol-3-yl)propyl)amino)-5-(1H-indol-6-yl)benzoate] | 4 | 8 | 30
COC(=O)c1cc(-c2ccc(NC(C)=O)nc2)ccc1NC(C#N)[C@H](Cc1c[nH]c2ccccc12)NC(=O)OC(C)(C)C (mixture of isomers) [Example 29, Methyl 5-(6-acetamidopyridin-3-yl)-2-(((1RS,2S)-2-((tert-butoxycarbonyl)amino)-1-cyano-3-(1H-indol-3-yl)propyl)amino)benzoate] | 3 | 8 | > 50
COC(=O)c1cc(-c2cnn(CCN3CCOCC3)c2)ccc1NC(C#N)[C@H](Cc1c[nH]c2ccccc12)NC(=O)OC(C)(C)C (mixture of isomers) [Example 25, Methyl 2-(((1RS,2S)-2-((tert-butoxycarbonyl)amino)-1-cyano-3-(1H-indol-3-yl)propyl)amino)-5-(1-(2-morpholinoethyl)-1H-pyrazol-4-yl)benzoate] | 6 | 9 | > 50
COC(=O)c1cc(-c2ccc(N3CCOCC3)cc2)ccc1NC(C#N)[C@H](Cc1c[nH]c2ccc(Br)cc12)NC(=O)OC(C)(C)C (mixture of isomers) [Example 1, Methyl 4-(((1RS,2S)-3-(5-bromo-1H-indol-3-yl)-2-((tert-butoxycarbonyl)amino)-1-cyanopropyl)amino)-4'-morpholino-[1,1'-biphenyl]-3-carboxylate] | 0.8 | 6 | > 50
COC(=O)c1cc(-c2cc3ccccc3o2)ccc1NC(C#N)[C@H](Cc1c[nH]c2ccccc12)NC(=O)OC(C)(C)C (mixture of isomers) [Example 12, Methyl 5-(benzofuran-2-yl)-2-(((1RS,2S)-2-((tert-butoxycarbonyl)amino)-1-cyano-3-(1H-indol-3-yl)propyl)amino)benzoate] | 1.85 | 5 | > 50
